Measurements taken from ChEMBL document CHEMBL5653615 (J Biol Chem, 2013).

Key:
[1] = biological target: Serine/threonine-protein kinase Nek7 (Homo sapiens) (UniProt Q8TDX7); test: Inhibition of human NEK7 at 500 nM by HotSpot assay relative to control
[2] = biological target: Receptor-interacting serine/threonine-protein kinase 2 (Homo sapiens) (UniProt O43353); test: Inhibition of human RIPK2 at 500 nM by HotSpot assay relative to control
[3] = biological target: CDK6/cyclin D1 (Homo sapiens) (UniProt P24385+Q00534); test: Inhibition of human CDK6/cyclin D1 at 500 nM by HotSpot assay relative to control; format: protein-complex assay
[4] = biological target: T1, Ephrin type-A receptor 3 (Homo sapiens) (UniProt P29320); test: Inhibition of human EPHA3 at 500 nM by HotSpot assay relative to control
T1 sequence (whole entry): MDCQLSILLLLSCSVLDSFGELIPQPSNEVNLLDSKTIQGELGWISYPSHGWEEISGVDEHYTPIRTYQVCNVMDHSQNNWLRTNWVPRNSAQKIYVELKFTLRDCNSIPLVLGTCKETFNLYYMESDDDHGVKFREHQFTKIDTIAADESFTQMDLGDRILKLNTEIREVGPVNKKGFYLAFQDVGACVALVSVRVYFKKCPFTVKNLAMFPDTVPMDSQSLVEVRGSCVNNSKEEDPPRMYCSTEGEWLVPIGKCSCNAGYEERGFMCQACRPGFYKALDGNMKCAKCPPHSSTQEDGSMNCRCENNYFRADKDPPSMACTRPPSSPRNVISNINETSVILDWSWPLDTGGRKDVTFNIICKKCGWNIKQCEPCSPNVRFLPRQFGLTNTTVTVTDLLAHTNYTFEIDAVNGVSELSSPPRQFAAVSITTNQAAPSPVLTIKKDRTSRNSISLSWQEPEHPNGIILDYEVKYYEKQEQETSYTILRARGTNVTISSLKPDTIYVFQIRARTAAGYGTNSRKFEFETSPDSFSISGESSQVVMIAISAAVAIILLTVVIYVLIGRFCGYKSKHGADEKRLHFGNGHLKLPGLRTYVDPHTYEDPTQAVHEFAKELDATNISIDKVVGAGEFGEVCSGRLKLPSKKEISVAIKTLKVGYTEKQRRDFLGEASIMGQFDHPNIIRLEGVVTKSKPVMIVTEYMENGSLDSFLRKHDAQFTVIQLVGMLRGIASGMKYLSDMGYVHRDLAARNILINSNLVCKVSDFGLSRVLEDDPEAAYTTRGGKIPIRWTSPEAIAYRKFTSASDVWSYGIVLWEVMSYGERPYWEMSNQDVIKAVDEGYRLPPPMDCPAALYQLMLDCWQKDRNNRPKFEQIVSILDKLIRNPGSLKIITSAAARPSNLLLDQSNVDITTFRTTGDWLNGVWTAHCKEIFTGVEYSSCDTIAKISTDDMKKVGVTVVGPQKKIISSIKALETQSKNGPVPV

[5] = biological target: T2, Mitogen-activated protein kinase kinase kinase 2 (Homo sapiens) (UniProt Q9Y2U5); test: Inhibition of human MEKK2 at 500 nM by HotSpot assay relative to control
T2 sequence (whole entry): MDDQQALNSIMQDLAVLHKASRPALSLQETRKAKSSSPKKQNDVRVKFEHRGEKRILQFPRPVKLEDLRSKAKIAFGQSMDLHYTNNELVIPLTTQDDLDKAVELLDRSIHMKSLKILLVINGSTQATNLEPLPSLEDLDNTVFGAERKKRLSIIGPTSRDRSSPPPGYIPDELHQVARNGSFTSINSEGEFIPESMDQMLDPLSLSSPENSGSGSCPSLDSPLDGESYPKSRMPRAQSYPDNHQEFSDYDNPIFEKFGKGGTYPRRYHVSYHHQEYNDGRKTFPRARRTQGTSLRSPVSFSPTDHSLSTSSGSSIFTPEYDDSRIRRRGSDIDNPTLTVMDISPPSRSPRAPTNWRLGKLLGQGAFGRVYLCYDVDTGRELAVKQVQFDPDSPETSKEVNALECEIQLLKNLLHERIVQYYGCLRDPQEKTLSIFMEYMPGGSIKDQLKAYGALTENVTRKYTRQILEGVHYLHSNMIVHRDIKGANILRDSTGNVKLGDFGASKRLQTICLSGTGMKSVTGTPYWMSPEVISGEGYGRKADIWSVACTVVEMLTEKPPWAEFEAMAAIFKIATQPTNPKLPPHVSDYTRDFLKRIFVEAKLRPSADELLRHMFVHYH

[6] = biological target: T3, Ephrin type-B receptor 2 (Homo sapiens) (UniProt P29323); test: Inhibition of human EPHB2 at 500 nM by HotSpot assay relative to control
T3 sequence (whole entry): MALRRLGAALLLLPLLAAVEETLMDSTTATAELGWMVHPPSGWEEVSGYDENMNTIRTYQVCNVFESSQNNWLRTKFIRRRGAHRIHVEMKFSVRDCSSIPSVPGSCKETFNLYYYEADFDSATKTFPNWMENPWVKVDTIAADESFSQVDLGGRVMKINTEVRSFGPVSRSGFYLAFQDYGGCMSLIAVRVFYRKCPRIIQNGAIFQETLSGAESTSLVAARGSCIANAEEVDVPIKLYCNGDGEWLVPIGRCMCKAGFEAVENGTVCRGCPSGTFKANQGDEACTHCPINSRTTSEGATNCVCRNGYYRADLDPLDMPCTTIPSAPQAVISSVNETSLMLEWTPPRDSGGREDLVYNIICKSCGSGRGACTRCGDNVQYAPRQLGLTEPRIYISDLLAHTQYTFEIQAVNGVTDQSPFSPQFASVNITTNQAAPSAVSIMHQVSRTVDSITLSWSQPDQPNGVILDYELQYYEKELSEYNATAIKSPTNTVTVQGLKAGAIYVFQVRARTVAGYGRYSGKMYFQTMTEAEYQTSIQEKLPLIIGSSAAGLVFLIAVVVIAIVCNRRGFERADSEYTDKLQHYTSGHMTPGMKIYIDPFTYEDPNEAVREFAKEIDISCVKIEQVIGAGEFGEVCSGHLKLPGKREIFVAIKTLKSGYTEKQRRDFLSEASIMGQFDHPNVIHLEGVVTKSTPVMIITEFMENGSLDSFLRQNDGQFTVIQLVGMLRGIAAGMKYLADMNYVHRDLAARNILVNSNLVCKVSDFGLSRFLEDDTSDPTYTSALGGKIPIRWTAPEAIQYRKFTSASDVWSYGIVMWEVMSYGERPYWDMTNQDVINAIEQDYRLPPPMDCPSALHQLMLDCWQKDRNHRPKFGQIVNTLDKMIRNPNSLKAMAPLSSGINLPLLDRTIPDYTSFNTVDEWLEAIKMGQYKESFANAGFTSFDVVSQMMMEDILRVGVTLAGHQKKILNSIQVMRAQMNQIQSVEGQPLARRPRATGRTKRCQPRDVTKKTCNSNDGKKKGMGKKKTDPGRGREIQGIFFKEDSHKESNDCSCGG

Sequence of Receptor-interacting serine/threonine-protein kinase 2 (Homo sapiens) (O43353 whole entry): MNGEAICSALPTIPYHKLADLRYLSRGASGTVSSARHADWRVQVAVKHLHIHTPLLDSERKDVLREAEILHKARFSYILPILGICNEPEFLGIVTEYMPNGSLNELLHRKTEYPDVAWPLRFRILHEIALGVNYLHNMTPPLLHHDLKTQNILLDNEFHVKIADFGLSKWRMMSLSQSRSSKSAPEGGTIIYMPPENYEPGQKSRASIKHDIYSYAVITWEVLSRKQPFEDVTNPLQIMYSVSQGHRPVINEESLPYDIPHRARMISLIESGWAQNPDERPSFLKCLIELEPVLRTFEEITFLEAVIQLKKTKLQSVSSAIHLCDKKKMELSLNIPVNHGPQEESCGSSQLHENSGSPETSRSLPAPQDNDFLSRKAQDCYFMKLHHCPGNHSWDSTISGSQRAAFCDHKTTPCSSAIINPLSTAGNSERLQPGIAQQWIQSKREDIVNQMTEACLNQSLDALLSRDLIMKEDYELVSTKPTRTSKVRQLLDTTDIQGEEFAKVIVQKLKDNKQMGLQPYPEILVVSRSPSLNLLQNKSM
Sequence of Serine/threonine-protein kinase Nek7 (Homo sapiens) (Q8TDX7 whole entry, looked up): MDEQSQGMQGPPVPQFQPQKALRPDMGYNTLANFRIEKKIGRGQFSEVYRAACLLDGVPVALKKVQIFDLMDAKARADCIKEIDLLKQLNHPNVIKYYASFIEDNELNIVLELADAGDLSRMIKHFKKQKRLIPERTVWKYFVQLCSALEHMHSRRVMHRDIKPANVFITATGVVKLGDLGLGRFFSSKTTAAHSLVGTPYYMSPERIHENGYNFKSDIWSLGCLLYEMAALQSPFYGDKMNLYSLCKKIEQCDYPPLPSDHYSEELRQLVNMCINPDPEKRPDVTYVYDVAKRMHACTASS

Row | Compound | inhibition [1] [%] | inhibition [2] [%] | inhibition [3] [%] | inhibition [4] [%] | inhibition [5] [%] | inhibition [6] [%]
1 | Oc1n[nH]c2nnc(-c3c(-c4ccccc4)nn4ccccc34)cc12 | 3.15 | 11.9 | -3.16 | 5.45 | -0.17 | 5.22
2 | Nc1n[nH]c2nnc(-c3c(-c4ccccc4)nn4ccccc34)cc12 | 4.72 | 13 | -0.33 | 2.18 | 2.22 | 6.94
